The supplement of paper PMC10307832

How the values were obtained:
Assay in all cases: relative viability (nuclei count vs DMSO), 5 days (fraction); higher = more cells survive
EHT 1864 + Vorinostat = compound: C1COCCN1CC2=CC(=O)C(=CO2)OCCCCCSC3=C4C=CC(=CC4=NC=C3)C(F)(F)F [EHT 1864] + O=C(CCCCCCC(=O)Nc1ccccc1)NO [Vorinostat] (partner 1 µM)
Procedure, shortened: (§1)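 Lung cancer cell lines in 1536-well plates got either a single drug or a fixed anchor-drug dose together with five library-drug doses (not always all listed) in √10 steps, by pin tool, on the day after seeding. Nuclei were counted after 5 days, and relative viability is the treated-to-vehicle ratio of nuclei counts. Values are medians of duplicate plates.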

EHT 1864 + Pemetrexed = compound: C1COCCN1CC2=CC(=O)C(=CO2)OCCCCCSC3=C4C=CC(=CC4=NC=C3)C(F)(F)F [EHT 1864] + Nc1nc2[nH]cc(CCc3ccc(C(=O)N[C@@H](CCC(=O)O)C(=O)O)cc3)c2c(=O)[nH]1 [Pemetrexed] (partner 0.2 µM)
Procedure, shortened: as §1

EHT 1864 + Dasatinib = compound: C1COCCN1CC2=CC(=O)C(=CO2)OCCCCCSC3=C4C=CC(=CC4=NC=C3)C(F)(F)F [EHT 1864] + Cc1nc(Nc2ncc(C(=O)Nc3c(C)cccc3Cl)s2)cc(N2CCN(CCO)CC2)n1 [Dasatinib] (partner 0.075 µM)
Procedure, shortened: as §1

EHT 1864 + Palbociclib = compound: C1COCCN1CC2=CC(=O)C(=CO2)OCCCCCSC3=C4C=CC(=CC4=NC=C3)C(F)(F)F [EHT 1864] + CC(=O)c1c(C)c2cnc(Nc3ccc(N4CCNCC4)cn3)nc2n(C2CCCC2)c1=O [Palbociclib] (partner 0.5 µM)
Procedure, shortened: as §1

Cell Line	relative viability (EHT 1864 + Vorinostat; first compound 0.04 µM)	relative viability (EHT 1864 + Vorinostat; first compound 0.1265 µM)	relative viability (EHT 1864 + Vorinostat; first compound 0.4 µM)	relative viability (EHT 1864 + Vorinostat; first compound 1.265 µM)	relative viability (EHT 1864 + Vorinostat; first compound 4 µM)	relative viability (EHT 1864 + Pemetrexed; first compound 0.04 µM)	relative viability (EHT 1864 + Pemetrexed; first compound 0.1265 µM)	relative viability (EHT 1864 + Pemetrexed; first compound 0.4 µM)	relative viability (EHT 1864 + Pemetrexed; first compound 1.265 µM)	relative viability (EHT 1864 + Pemetrexed; first compound 4 µM)	relative viability (EHT 1864 + Dasatinib; first compound 0.04 µM)	relative viability (EHT 1864 + Dasatinib; first compound 0.1265 µM)	relative viability (EHT 1864 + Dasatinib; first compound 0.4 µM)	relative viability (EHT 1864 + Dasatinib; first compound 1.265 µM)	relative viability (EHT 1864 + Dasatinib; first compound 4 µM)	relative viability (EHT 1864 + Palbociclib; first compound 0.04 µM)	relative viability (EHT 1864 + Palbociclib; first compound 0.1265 µM)	relative viability (EHT 1864 + Palbociclib; first compound 0.4 µM)	relative viability (EHT 1864 + Palbociclib; first compound 1.265 µM)	relative viability (EHT 1864 + Palbociclib; first compound 4 µM)
NCI-H2405	1.03	0.895	1.06	0.963	0.909	1.13	0.945	1.03	1.07	0.973	0.205	0.196	0.241	0.227	0.234	0.536	0.497	0.469	0.5	0.538
NCI-H3122	0.934	0.76	0.899	1.12	0.992	0.189	0.179	0.206	0.202	0.185	0.809	0.285	0.667	0.817	0.885	0.172	0.21	0.211	0.203	0.201
PC-3 [JPC-3]	0.886	0.718	0.83	0.77	0.801	1.07	0.944	1.1	1.09	1.03	1.05	0.901	0.996	1.02	0.896	0.549	0.554	0.539	0.545	0.57
PC-14	0.791	0.572	0.686	0.743	0.751	0.121	0.124	0.137	0.133	0.133	0.257	0.276	0.279	0.26	0.195	0.489	0.446	0.524	0.582	0.471
